In patent publication US8664220B2, “Polycyclic compounds as lysophosphatidic acid receptor antagonists” (Amira Pharmaceuticals, Inc., priority 2009, dated 2014) one finds IC50 data, which are given here for eleven molecules.

In this assay the target is T1, human LPA1 (Homo sapiens, UniProt Q92633).
T1 construct: the full-length cDNA for human LPA1 was obtained by PCR of the reverse transcription reaction; expressed in transfected cells
As to the kind of experiment: LPA1 calcium flux assay. The assay is classed as cell-based. Particulars: human LPA1 expressing CHO cells, stimulated with 10 nM LPA; read-out: HLPA1 Ca Flux IC50. The protocol:
Establishment of a CHO Cell Line Stably Expressing Human LPA1
A 1.1 kb cDNA encoding the human LPA1 receptor was cloned from human lung.
Human lung RNA (Clontech Laboratories, Inc. USA) was reverse transcribed using the RETROscript kit (Ambion, Inc.) and the full-length cDNA for human LPA1 was obtained by PCR of the reverse transcription reaction. The nucleotide sequence of the cloned human LPA1 was determined by sequencing and confirmed to be identical to the published human LPA1 sequence (An et al. Biochem. Biophys. Res. Commun. 231:619 (1997). The cDNA was cloned into the pcDNA5/FRT expression plasmid and transfected in CHO cells using lipofectamine 2000 (Invitrogen Corp., USA). Clones stably expressing human LPA1 were selected using hygromycin and identified as cells that show Ca-influx in response to LPA.
LPA1 and LPA3 Calcium Flux Assays
Human LPA1 or LPA3 expressing CHO cells are seeded at 20,000-45,000 cells per well in a 96-well poly-D-lysine coated plate one or two days before the assay. Prior to the assay, the cells are washed once with PBS and then cultured in serum-free media overnight. On the day of the assay, a calcium indicator dye (Calcium 4, Molecular Devices) in assay buffer (HBSS with Ca^2+ and Mg^2+ and containing 20 mM Hepes and 0.3% fatty-acid free human serum albumin) is added to each well and incubation continued for 1 hour at 37° C. 10 μl of test compounds in 2.5% DMSO are added to the cells and incubation continued at room temperature for 30 minutes. Cells are the stimulated by the addition of 10 nM LPA and intracellular Ca^2+ measured using the Flexstation 3 (Molecular Devices). IC50s are determined using Graphpad prism analysis of drug titration curves.
(In general: Calcium flux is commonly read through the fluorescence of an indicator in the cells.)

Each structure is given as a SMILES string. Where only a bound is given, the exact number is not on record here.

T1 sequence (Q92633 whole entry): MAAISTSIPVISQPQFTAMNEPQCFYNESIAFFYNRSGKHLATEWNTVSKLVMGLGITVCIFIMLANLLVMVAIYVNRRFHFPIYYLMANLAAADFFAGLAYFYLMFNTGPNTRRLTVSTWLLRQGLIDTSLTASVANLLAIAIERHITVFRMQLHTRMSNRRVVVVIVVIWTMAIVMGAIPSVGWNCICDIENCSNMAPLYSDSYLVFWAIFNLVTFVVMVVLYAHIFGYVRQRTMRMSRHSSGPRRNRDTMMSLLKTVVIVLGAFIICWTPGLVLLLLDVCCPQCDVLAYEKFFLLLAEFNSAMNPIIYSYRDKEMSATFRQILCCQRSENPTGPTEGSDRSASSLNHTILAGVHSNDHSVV

With `COc1cncc(-c2cccc(Nc3c(C)noc3-c3ccc(-c4ccc(C5(C(=O)O)CC5)cc4)cc3)c2)c1` [Compound 1-104, 1-(4′-{4-[3-(5-Methoxy-pyridin-3-yl)-phenylamino]-3-methyl-isoxazol-5-yl}-biphenyl-4-yl)-cyclopropanecarboxylic acid], the IC50 (in general, the concentration that gives 50% inhibition) was < 300 nM.

Take `Cc1noc(-c2ccc(-c3ccc(C4(C(=O)O)CC4)cc3)cc2)c1C(O)c1nnc(Cc2ccccc2)o1` (centres unmarked) [Compound 1-30, 1-(4′-{4-[(5-Benzyl-[1,3,4]oxadiazol-2-yl)-hydroxy-methyl]-3-methyl-isoxazol-5-yl}-biphenyl-4-yl)-cyclopropanecarboxylic acid]: the IC50 is < 300 nM.

As to `Cc1noc(-c2ccc(-c3ccc(C4(C(=O)O)CC4)cc3)cc2)c1C(O)c1cccc(Cc2ccccc2)c1` (centres unmarked) [Compound 1-58, 1-(4′-{4-[(3-Benzyl-phenyl)-hydroxy-methyl]-3-methyl-isoxazol-5-yl}-biphenyl-4-yl)-cyclopropanecarboxylic acid], the IC50 was < 300 nM.

Regarding `Cc1noc(-c2ccc(-c3ccc(C4(C(=O)O)CC4)cc3)cc2)c1C(O)c1cncc(-c2ccccc2)c1` (centres unmarked) [Compound 1-129, 1-(4′-{4-[Hydroxy-(5-phenyl-pyridin-3-yl)-methyl]-3-methyl-isoxazol-5-yl}-biphenyl-4-yl)-cyclopropanecarboxylic acid], the IC50 is < 300 nM.

For the molecule `Cc1noc(-c2ccc(-c3ccc(C4(C(=O)O)CC4)cc3)cc2)c1Nc1cncc(-c2cccc(F)c2)c1` [Compound 1-108, 1-(4′-{4-[5-(3-Fluoro-phenyl)-pyridin-3-ylamino]-3-methyl-isoxazol-5-yl}-biphenyl-4-yl)-cyclopropanecarboxylic acid], the IC50 is < 300 nM.

As to `Cc1noc(-c2ccc(-c3ccc(C4(CC(=O)O)CC4)cc3)cc2)c1NC(C)Cc1ccc(OCc2ccc(C(F)(F)F)cc2)cc1` (centres unmarked) [Compound 1-45, {1-[4′-(3-Methyl-4-{1-methyl-2-[4-(4-trifluoromethyl-benzyloxy)-phenyl]-ethylamino}-isoxazol-5-yl)-biphenyl-4-yl]-cyclopropyl}-acetic acid], the IC50 lay within 300 to 1000 nM.

With `Cc1noc(-c2ccc(-c3ccc(C4(C(=O)O)CC4)cc3)cc2)c1Nc1cncc(-c2cccc(F)c2Cl)c1` [Compound 1-155, 1-(4′-{4-[5-(2-Chloro-3-fluoro-phenyl)-pyridin-3-ylamino]-3-methyl-isoxazol-5-yl}-biphenyl-4-yl)-cyclopropanecarboxylic acid], the IC50 is < 300 nM.

Take `Cc1noc(-c2ccc(-c3ccc(C4(C(=O)O)CC4)cc3)cc2)c1CN1C(=O)O[C@H](c2ccccc2)[C@@H]1C` [Compound 1-16, 1-{4′-[3-Methyl-4-((4S,5R)-4-methyl-2-oxo-5-phenyl-oxazolidin-3-ylmethyl)-isoxazol-5-yl]-biphenyl-4-yl}-cyclopropanecarboxylic acid]: the IC50 is < 300 nM.

`Cc1noc(-c2ccc(-c3ccc(C4(C(=O)O)CC4)cc3)cc2)c1-c1nnc(Cc2ccccc2)o1` [Compound 1-24, 1-{4′-[4-(5-Benzyl-[1,3,4]oxadiazol-2-yl)-3-methyl-isoxazol-5-yl]-biphenyl-4-yl}-cyclopropanecarboxylic acid]: the IC50 lay in the range of 1000 to 50000 nM.

Consider `Cc1noc(-c2ccc(-c3ccc(C4(C(=O)NS(C)(=O)=O)CC4)cc3)cc2)c1Nc1cccc(Cc2ccccc2)n1` [Compound 3-5, N-(1-{4′-[4-(6-Benzyl-pyridin-2-ylamino)-3-methyl-isoxazol-5-yl]-biphenyl-4-yl}-cyclopropanecarbonyl)-methanesulfonamide], for which the IC50 was < 300 nM.

Turning to `Cc1noc(-c2ccc(-c3ccc(C4(C(=O)O)CC4)cc3)cc2)c1Nc1cccc(N(C)c2ccccc2)n1` [Compound 1-105, 1-(4′-{3-Methyl-4-[6-(methyl-phenyl-amino)-pyridin-2-ylamino]-isoxazol-5-yl}-biphenyl-4-yl)-cyclopropanecarboxylic acid], the IC50 fell in the range of 300 to 1000 nM.
